In ChEMBL document CHEMBL3875185, “Structure-anticonvulsant activity studies in the group of (E)-N-cinnamoyl aminoalkanols derivatives monosubstituted in phenyl ring with 4-Cl, 4-CH3 or 2-CH3” (Bioorg Med Chem, 2017):
Calls of active or inactive are those of the source. The rule behind the calls is not given here.

Key:
Mus musculus [1] = assay: Anticonvulsant activity in maximal electroshock induced seizure mouse model assessed as suppression in hindlimb tonic extension at 100 mg/kg, ip measured at 0.5 hrs post dose; assay type: functional, organism-based
[2] = Neurotoxicity in po dosed mouse; assay type: toxicity, organism-based; conditions: in vivo
[3] = target: Type-1 angiotensin II receptor (Homo sapiens) (UniProt P30556); assay: Displacement of [125I][Sar1,Ile8]-AT2 from human recombinant AT1 receptor expressed in HEK293 cells at 100 uM measured after 120 mins by scintillation counting method relative to control; assay type: cell-based
Type-1 angiotensin II receptor (Homo sapiens), sequence (P30556 whole entry): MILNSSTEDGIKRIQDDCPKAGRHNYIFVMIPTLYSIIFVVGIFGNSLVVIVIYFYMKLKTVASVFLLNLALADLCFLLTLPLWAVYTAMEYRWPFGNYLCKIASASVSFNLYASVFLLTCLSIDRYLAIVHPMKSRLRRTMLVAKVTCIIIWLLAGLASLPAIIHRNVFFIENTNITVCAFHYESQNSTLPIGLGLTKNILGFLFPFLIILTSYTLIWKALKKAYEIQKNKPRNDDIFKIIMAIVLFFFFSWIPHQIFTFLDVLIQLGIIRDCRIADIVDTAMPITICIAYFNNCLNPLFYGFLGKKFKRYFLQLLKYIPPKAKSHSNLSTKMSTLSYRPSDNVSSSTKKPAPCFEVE

[4] = target: B2 bradykinin receptor (Homo sapiens) (UniProt P30411); assay: Displacement of [3H]bradykinin from human recombinant bradykinin B2 receptor expressed in CHO cells at 100 uM measured after 60 mins by scintillation counting method relative to control; assay type: cell-based
B2 bradykinin receptor (Homo sapiens), sequence (P30411 whole entry): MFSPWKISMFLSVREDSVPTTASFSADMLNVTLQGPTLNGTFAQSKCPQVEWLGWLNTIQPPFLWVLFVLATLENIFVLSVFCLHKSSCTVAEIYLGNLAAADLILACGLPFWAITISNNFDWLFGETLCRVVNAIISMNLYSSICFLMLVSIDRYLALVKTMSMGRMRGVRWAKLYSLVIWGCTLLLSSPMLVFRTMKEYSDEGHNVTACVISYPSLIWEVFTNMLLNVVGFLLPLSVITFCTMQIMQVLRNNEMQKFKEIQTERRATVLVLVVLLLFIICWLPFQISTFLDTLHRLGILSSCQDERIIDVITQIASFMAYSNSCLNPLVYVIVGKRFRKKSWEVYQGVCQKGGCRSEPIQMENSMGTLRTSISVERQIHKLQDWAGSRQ

Rattus norvegicus [5] = assay: Neurotoxicity in Sprague-Dawley rat assessed as behavioral change at 30 mg/kg, ip measured at 2 hrs post dose; assay type: toxicity, organism-based; conditions: in vivo
Rattus norvegicus [6] = assay: Anticonvulsant activity in po dosed pentylenetetrazole induced seizure Sprague-Dawley rat model assessed as no observable episode of clonic convulsion of at least 5 secs; assay type: functional
[7] = target: Calcitonin gene-related peptide type 1 receptor (Homo sapiens) (UniProt Q16602); assay: Displacement of [125I]hCGRPa from human recombinant CGRP receptor expressed in CHO cells at 100 uM measured after 90 mins by scintillation counting method relative to control; assay type: cell-based
Calcitonin gene-related peptide type 1 receptor (Homo sapiens), sequence (Q16602 whole entry): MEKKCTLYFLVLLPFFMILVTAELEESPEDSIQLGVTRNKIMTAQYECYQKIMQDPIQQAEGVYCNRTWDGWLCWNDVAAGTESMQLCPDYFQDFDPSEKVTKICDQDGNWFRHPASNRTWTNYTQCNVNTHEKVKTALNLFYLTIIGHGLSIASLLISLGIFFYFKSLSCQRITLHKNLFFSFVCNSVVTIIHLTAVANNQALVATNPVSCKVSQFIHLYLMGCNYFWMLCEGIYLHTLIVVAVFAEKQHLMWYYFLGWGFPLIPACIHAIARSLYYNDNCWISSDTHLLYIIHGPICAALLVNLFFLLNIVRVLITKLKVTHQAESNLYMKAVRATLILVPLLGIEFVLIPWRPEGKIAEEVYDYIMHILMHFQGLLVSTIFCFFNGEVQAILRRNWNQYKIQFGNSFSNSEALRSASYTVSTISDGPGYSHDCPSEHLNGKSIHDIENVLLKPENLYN

Rattus norvegicus [8] = organism: Rattus norvegicus; assay: Displacement of [125I]alpha-dendrotoxin from rat cerebral cortex Kv channel at 100 uM measured after 60 mins by scintillation counting method relative to control
Mus musculus [9] = assay: Anticonvulsant activity in po dosed maximal electroshock induced seizure mouse model assessed as suppression in hindlimb tonic extension; assay type: functional
AtT20 = assay: Displacement of [125I]Tyr11-somatostatin-14 from Sst receptor in mouse AtT-20 cells at 100 uM measured after 60 mins by scintillation counting method relative to control; assay type: cell-based
Mus musculus [10] = assay: Anticonvulsant activity in 6-Hz induced seizure mouse model assessed as restoration of normal activity within 10 secs from stimulation at 100 mg/kg, ip at 32 mA measured at 1 hr post dose; assay type: functional, organism-based
Rattus norvegicus [11] = assay: Anticonvulsant activity in maximal electroshock induced seizure Sprague-Dawley rat model assessed as suppression in hindlimb tonic extension at 30 mg/kg, ip measured at 1 hr post dose; assay type: functional, organism-based
Mus musculus [12] = assay: Anticonvulsant activity in po dosed pentylenetetrazole induced seizure mouse model assessed as no observable episode of clonic convulsion of at least 5 secs by measuring time to peak effect; assay type: functional
Rattus norvegicus [13] = organism: Rattus norvegicus; assay: Displacement of [3H]D888 from rat cerebral cortex calcium channel L type verapamil binding site at 100 uM measured after 120 mins by scintillation counting method relative to control
Mus musculus [14] = assay: Anticonvulsant activity in po dosed maximal electroshock induced seizure mouse model assessed as suppression in hindlimb tonic extension by measuring time to peak effect; assay type: functional
[15] = target: Neurotensin receptor type 1 (Homo sapiens) (UniProt P30989); assay: Displacement of [125I]Tyr3-neurotensin from human recombinant NTS1 receptor expressed in CHO cells at 100 uM measured after 60 mins by scintillation counting method relative to control; assay type: cell-based
Neurotensin receptor type 1 (Homo sapiens), sequence (P30989 whole entry): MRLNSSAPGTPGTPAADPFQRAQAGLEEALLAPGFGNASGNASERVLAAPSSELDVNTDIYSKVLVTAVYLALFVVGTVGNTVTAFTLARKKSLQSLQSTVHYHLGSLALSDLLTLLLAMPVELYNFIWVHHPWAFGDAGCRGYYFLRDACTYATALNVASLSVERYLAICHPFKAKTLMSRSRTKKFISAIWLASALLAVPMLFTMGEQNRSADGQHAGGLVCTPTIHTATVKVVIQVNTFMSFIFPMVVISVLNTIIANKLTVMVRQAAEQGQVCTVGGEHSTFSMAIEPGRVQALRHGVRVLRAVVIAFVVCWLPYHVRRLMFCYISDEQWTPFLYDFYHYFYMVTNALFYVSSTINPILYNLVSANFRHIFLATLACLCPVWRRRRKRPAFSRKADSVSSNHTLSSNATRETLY

Rattus norvegicus [16] = organism: Rattus norvegicus; assay: Displacement of [125I][Tyr4]bombesin from rat cerebral cortex BB receptor at 100 uM measured after 60 mins by scintillation counting method relative to control
Mus musculus [17] = assay: Anticonvulsant activity in po dosed 6-Hz induced seizure mouse model assessed as restoration of normal activity within 10 secs from stimulation at 44 mA; assay type: functional
Mus musculus [18] = assay: Anticonvulsant activity in po dosed 6-Hz induced seizure mouse model assessed as restoration of normal activity within 10 secs from stimulation by measuring time to peak effect at 44 mA; assay type: functional
[19] = Protection index, ratio of TD50 for neurotoxicity in po dosed mouse to ED50 for po dosed 6-Hz induced seizure mouse model at 44 mA; assay type: toxicity, organism-based; conditions: in vivo, read-out: Ratio TD50/ED50
[20] = Protection index, ratio of TD50 for neurotoxicity in po dosed mouse to ED50 for po dosed pentylenetetrazole induced seizure mouse model; assay type: toxicity, organism-based; conditions: in vivo, read-out: Ratio TD50/ED50
Mus musculus [21] = assay: Anticonvulsant activity in po dosed pentylenetetrazole induced seizure mouse model assessed as no observable episode of clonic convulsion of at least 5 secs; assay type: functional
Mus musculus [22] = assay: Neurotoxicity in mouse assessed as induction of motor impairment at 300 mg/kg, ip measured at 0.5 hrs post dose by rotarod method; assay type: toxicity, organism-based; conditions: in vivo
Rattus norvegicus [23] = assay: Neurotoxicity in Sprague-Dawley rat assessed as behavioral change at 50 mg/kg, ip measured at 1 hr post dose; assay type: toxicity, organism-based; conditions: in vivo
[24] = target: Neuropeptide Y receptor type 1 (Homo sapiens) (UniProt P25929); assay: Displacement of [125I]peptide YY from Y1 in human SK-N-MC cells receptor at 100 uM measured after 120 mins by scintillation counting method relative to control; assay type: cell-based
Neuropeptide Y receptor type 1 (Homo sapiens), sequence (P25929 whole entry): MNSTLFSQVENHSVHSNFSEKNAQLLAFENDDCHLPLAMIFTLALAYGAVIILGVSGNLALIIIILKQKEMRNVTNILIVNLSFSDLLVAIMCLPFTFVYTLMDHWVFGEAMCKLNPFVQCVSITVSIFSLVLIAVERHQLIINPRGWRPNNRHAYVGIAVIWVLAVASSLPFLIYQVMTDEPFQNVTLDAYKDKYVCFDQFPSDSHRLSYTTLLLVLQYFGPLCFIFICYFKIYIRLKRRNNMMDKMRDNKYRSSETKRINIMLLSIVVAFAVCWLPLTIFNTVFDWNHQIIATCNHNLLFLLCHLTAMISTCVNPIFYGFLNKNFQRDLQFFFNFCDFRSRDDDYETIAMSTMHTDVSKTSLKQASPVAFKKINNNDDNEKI

[25] = target: Vasopressin V1a receptor (Homo sapiens) (UniProt P37288); assay: Displacement of [3H]AVP from human recombinant V1a receptor expressed in CHO cells at 100 uM measured after 60 mins by scintillation counting method relative to control; assay type: cell-based
Vasopressin V1a receptor (Homo sapiens), sequence (P37288 whole entry, looked up): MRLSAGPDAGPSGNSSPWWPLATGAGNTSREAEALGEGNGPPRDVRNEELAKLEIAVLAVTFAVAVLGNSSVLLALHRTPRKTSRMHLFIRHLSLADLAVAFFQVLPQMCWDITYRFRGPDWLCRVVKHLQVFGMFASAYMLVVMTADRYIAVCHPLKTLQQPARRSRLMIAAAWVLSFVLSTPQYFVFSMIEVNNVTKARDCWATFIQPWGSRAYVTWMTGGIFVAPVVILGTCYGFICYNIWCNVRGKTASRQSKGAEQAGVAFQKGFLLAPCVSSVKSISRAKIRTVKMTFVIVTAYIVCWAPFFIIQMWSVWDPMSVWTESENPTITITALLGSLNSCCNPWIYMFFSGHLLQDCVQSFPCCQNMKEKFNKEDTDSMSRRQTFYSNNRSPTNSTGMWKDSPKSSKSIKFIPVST

Mus musculus [26] = assay: Anticonvulsant activity in maximal electroshock induced seizure mouse model assessed as suppression in hindlimb tonic extension at 300 mg/kg, ip measured at 4 hrs post dose; assay type: functional, organism-based
Mus musculus [27] = assay: Anticonvulsant activity in 6-Hz induced seizure mouse model assessed as restoration of normal activity within 10 secs from stimulation at 100 mg/kg, ip at 44 mA measured at 0.5 hrs post dose; assay type: functional, organism-based
Rattus norvegicus [28] = assay: Neurotoxicity in Sprague-Dawley rat assessed as behavioral change at 50 mg/kg, ip measured at 0.5 hrs post dose; assay type: toxicity, organism-based; conditions: in vivo
[29] = target: Histamine H2 receptor (Homo sapiens) (UniProt P25021); assay: Displacement of [125I]APT from human recombinant H2 receptor expressed in CHO cells at 100 uM measured after 120 mins by scintillation counting method relative to control; assay type: cell-based
Histamine H2 receptor (Homo sapiens), sequence (P25021 whole entry): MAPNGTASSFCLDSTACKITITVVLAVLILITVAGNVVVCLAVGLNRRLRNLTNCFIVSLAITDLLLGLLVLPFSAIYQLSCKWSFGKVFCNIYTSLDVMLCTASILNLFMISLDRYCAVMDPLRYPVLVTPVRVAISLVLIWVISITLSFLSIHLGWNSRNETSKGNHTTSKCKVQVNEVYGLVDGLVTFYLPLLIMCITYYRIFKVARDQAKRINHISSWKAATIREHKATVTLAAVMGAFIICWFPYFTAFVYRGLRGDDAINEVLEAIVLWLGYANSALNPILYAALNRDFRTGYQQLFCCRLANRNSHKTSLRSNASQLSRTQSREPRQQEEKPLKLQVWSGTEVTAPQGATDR

[30] = target: Neuropeptide Y receptor type 2 (Homo sapiens) (UniProt P49146); assay: Displacement of [125I]peptide YY from Y2 in human KAN-TS cells receptor at 100 uM measured after 60 mins by scintillation counting method relative to control; assay type: cell-based
Neuropeptide Y receptor type 2 (Homo sapiens), sequence (P49146 whole entry): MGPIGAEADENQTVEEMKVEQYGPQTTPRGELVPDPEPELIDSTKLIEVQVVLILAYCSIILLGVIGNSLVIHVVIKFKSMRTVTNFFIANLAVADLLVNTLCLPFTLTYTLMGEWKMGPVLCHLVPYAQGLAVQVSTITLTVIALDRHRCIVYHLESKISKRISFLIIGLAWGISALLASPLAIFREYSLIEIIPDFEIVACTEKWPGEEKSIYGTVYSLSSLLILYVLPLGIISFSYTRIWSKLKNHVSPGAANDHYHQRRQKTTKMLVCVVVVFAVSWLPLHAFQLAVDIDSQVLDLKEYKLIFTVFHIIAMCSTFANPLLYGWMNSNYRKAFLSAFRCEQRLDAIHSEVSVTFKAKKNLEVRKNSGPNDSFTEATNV

Rattus norvegicus [31] = assay: Neurotoxicity in Sprague-Dawley rat assessed as behavioral change at 50 mg/kg, ip measured at 4 hrs post dose; assay type: toxicity, organism-based; conditions: in vivo
Rattus norvegicus [32] = assay: Anticonvulsant activity in maximal electroshock induced seizure Sprague-Dawley rat model assessed as suppression in hindlimb tonic extension at 30 mg/kg, po measured at 0.5 hrs post dose; assay type: functional, organism-based
[33] = target: Glucocorticoid receptor (Homo sapiens) (UniProt P04150); assay: Displacement of [3H]dexamethasone from GR receptor in human IM9 cells at 100 uM relative to control; assay type: cell-based; conditions: IM-9
Glucocorticoid receptor (Homo sapiens), sequence (P04150 whole entry): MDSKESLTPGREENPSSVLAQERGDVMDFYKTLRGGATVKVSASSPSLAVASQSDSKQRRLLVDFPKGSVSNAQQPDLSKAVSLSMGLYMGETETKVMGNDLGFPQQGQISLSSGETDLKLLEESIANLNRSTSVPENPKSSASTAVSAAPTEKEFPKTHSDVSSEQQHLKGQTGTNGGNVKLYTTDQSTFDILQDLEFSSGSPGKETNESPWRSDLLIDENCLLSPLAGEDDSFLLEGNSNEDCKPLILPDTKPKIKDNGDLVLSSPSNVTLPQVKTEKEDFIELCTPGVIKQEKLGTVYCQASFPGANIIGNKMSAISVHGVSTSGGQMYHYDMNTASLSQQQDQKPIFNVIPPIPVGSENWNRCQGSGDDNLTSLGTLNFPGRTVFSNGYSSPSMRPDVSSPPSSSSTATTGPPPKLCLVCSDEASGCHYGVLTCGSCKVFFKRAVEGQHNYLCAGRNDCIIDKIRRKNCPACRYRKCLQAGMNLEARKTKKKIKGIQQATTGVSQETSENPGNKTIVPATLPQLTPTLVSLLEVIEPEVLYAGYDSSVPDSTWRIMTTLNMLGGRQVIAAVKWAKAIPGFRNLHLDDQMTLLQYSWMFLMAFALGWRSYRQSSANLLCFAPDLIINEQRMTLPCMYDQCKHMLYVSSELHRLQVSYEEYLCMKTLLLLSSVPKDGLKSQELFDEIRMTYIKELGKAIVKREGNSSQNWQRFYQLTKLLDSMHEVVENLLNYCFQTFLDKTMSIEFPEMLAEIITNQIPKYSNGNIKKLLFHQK

[34] = target: Histamine H1 receptor (Homo sapiens) (UniProt P35367); assay: Displacement of [3H]pyrilamine from human recombinant H1 receptor expressed in HEK293 cells at 100 uM measured after 60 mins by scintillation counting method relative to control; assay type: cell-based
Histamine H1 receptor (Homo sapiens), sequence (P35367 whole entry): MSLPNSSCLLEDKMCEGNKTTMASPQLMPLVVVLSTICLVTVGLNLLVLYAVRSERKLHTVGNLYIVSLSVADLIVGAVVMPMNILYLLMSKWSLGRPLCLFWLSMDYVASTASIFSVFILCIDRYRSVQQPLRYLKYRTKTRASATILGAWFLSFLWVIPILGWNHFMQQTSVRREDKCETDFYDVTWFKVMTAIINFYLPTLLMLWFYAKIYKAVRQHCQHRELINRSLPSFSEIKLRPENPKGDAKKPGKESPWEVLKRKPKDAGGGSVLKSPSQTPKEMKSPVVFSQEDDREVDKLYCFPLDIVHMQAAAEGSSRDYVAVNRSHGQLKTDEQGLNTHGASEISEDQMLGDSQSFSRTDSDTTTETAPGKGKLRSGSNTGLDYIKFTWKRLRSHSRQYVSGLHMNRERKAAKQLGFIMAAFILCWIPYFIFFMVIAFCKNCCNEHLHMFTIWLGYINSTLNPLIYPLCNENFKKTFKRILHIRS

Rattus norvegicus [35] = assay: Neurotoxicity in Sprague-Dawley rat assessed as behavioral change at 50 mg/kg, ip measured at […] post dose; assay type: toxicity, organism-based; conditions: in vivo
Rattus norvegicus [36] = assay: Neurotoxicity in Sprague-Dawley rat assessed as behavioral change at 50 mg/kg, ip measured at 2 hrs post dose; assay type: toxicity, organism-based; conditions: in vivo

Cc1ccccc1/C=C/C(=O)N[C@@H](C)CO
Activity (Mus musculus [1]): Active
TD50 [2]: 282 mg/kg
inhibition [3]: -0.8%
inhibition [4]: -8.3%
Activity (Rattus norvegicus [5]): Non-Toxic
ED50 (Rattus norvegicus [6]): 69.6 mg/kg
inhibition [7]: -7.6%
inhibition (Rattus norvegicus [8]): -8.7%
ED50 (Mus musculus [9]): 43.3 mg/kg
inhibition (AtT20): -4.6%
Activity (Mus musculus [10]): Active
Activity (Rattus norvegicus [11]): Active
Time (Mus musculus [12]): 0.5 h
inhibition (Rattus norvegicus [13]): -0.4%
Time (Mus musculus [14]): 0.5 h
inhibition [15]: -4.6%
inhibition (Rattus norvegicus [16]): -3.4%
ED50 (Mus musculus [17]): 74.1 mg/kg
Time (Mus musculus [18]): 0.5 h
selectivity ratio [19]: 3.81
selectivity ratio [20]: 2.15
ED50 (Mus musculus [21]): 132 mg/kg
Activity (Mus musculus [22]): Toxic

CC(O)CNC(=O)/C=C/c1ccc(Cl)cc1 (configuration not stated)
Activity (Rattus norvegicus [23]): Non-Toxic
TD50 [2]: > 500 mg/kg
inhibition [3]: -9.6%
inhibition [4]: -1%
inhibition [24]: -5.8%
inhibition [25]: 9%
inhibition [7]: -6.9%
inhibition (Rattus norvegicus [8]): -9.6%
Activity (Mus musculus [26]): Active
ED50 (Mus musculus [9]): 92.5 mg/kg
Activity (Mus musculus [27]): Active
Activity (Rattus norvegicus [28]): Non-Toxic
inhibition [29]: -6.4%
inhibition [30]: 14.1%
Activity (Mus musculus [10]): Active
Activity (Rattus norvegicus [31]): Non-Toxic
Activity (Rattus norvegicus [32]): Active
Time (Mus musculus [12]): 1 h
inhibition (Rattus norvegicus [13]): -2.5%
Time (Mus musculus [14]): 1 h
inhibition [15]: -2.6%
inhibition (Rattus norvegicus [16]): -0.1%
inhibition [33]: -7%
ED50 (Mus musculus [17]): 120 mg/kg
inhibition [34]: -10%
Time (Mus musculus [18]): 1 h
selectivity ratio [19]: > 4.17
selectivity ratio [20]: > 3.79
Activity (Rattus norvegicus [35]): Non-Toxic
ED50 (Mus musculus [21]): 132 mg/kg
Activity (Mus musculus [22]): Toxic
Activity (Rattus norvegicus [36]): Non-Toxic

CCC(CO)NC(=O)/C=C/c1ccc(Cl)cc1 (configuration not stated)
Activity (Rattus norvegicus [23]): Non-Toxic
inhibition [25]: 10.6%
Activity (Mus musculus [26]): Active
Activity (Mus musculus [27]): Active
Activity (Rattus norvegicus [28]): Non-Toxic
inhibition [29]: -5.2%
inhibition [30]: 4.3%
inhibition (AtT20): -10%
Activity (Rattus norvegicus [31]): Non-Toxic
inhibition [33]: -9.9%
Activity (Rattus norvegicus [35]): Non-Toxic
Activity (Rattus norvegicus [36]): Non-Toxic
